From ChEMBL document CHEMBL3352570, “ST7612AA1, a thioacetate-ω(γ-lactam carboxamide) derivative selected from a novel generation of oral HDAC inhibitors” (J Med Chem, 2014)

Key:
Histone deacetylase 3 = Histone deacetylase 3 (Homo sapiens, UniProt O15379); test: Inhibition of HDAC3 (unknown origin) using fluorogenic tetrapeptide RHKK(Ac) substrate by fluorescence assay
[1] = molecular target: T1, Polyamine deacetylase HDAC10 (Homo sapiens, UniProt Q969S8); test: Inhibition of HDAC10 (unknown origin) using fluorogenic tetrapeptide RHKK(Ac) substrate by fluorescence assay
T1 sequence (Q969S8 whole entry): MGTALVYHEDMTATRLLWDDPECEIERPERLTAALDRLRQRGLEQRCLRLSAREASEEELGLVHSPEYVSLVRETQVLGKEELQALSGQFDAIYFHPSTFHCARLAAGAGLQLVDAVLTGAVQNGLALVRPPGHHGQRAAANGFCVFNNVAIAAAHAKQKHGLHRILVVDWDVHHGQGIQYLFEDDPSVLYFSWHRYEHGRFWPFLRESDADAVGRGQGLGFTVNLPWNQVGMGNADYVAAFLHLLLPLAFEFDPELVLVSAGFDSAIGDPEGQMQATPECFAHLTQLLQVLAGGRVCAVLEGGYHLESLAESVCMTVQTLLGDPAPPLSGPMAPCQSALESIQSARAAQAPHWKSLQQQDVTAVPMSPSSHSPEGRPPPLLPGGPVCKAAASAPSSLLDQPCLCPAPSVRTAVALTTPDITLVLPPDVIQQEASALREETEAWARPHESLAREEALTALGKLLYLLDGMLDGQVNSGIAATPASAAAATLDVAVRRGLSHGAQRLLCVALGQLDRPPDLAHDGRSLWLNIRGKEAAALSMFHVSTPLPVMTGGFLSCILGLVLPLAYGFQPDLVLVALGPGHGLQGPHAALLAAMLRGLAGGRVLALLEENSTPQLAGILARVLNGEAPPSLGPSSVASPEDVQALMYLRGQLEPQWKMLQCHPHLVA

Histone deacetylase 11 = molecular target: T2, Histone deacetylase 11 (Homo sapiens, UniProt Q96DB2); test: Inhibition of HDAC11 (unknown origin) using fluorogenic tetrapeptide RHKK(Ac) substrate by fluorescence assay
T2 sequence (Q96DB2 whole entry): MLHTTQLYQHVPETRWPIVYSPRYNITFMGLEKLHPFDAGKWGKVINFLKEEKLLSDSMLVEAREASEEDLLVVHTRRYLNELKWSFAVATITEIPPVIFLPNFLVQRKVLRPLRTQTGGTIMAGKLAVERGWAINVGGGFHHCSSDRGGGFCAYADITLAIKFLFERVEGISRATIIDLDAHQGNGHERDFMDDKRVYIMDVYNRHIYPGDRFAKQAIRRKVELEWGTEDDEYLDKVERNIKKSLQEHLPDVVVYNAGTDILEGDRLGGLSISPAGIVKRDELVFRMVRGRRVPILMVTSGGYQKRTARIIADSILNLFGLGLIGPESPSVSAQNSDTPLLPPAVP

Histone deacetylase 2 = Histone deacetylase 2 (Homo sapiens, UniProt Q92769); test: Inhibition of HDAC2 (unknown origin) using fluorogenic tetrapeptide RHKK(Ac) substrate by fluorescence assay
Sequence of Histone deacetylase 2 (Q92769 whole entry): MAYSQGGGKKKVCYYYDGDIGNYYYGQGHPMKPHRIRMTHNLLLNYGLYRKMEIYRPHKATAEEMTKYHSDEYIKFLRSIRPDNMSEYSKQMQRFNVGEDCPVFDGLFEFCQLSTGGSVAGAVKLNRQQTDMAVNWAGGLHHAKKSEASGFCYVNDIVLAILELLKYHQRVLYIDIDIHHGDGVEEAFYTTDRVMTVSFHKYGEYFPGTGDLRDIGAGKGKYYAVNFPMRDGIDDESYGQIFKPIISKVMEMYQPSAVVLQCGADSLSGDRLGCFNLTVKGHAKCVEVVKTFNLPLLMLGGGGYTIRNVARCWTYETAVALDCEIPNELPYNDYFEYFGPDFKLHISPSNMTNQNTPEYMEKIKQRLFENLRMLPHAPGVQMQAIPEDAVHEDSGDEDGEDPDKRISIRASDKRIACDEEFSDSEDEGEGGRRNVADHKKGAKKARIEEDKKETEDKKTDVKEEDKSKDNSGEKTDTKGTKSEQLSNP

Histone deacetylase 8 = molecular target: T3, Histone deacetylase 8 (Homo sapiens, UniProt Q9BY41); test: Inhibition of HDAC8 (unknown origin) using fluorogenic tetrapeptide RHK(Ac)K(Ac) substrate by fluorescence assay
T3 sequence (Q9BY41 whole entry): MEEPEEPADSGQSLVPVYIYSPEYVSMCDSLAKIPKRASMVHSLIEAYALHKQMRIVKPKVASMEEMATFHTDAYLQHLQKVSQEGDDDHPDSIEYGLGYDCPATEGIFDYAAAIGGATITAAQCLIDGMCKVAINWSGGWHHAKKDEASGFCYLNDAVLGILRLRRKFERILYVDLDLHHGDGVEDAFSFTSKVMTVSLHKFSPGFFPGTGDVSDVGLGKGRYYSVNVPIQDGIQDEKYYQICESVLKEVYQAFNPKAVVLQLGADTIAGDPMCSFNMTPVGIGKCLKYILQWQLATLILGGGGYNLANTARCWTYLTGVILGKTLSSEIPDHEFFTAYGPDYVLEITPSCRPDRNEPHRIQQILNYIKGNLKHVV

Histone deacetylase 1 = Histone deacetylase 1 (Homo sapiens, UniProt Q13547); test: Inhibition of HDAC1 (unknown origin) using fluorogenic tetrapeptide RHKK(Ac) substrate by fluorescence assay
Sequence of Histone deacetylase 1 (Q13547 whole entry): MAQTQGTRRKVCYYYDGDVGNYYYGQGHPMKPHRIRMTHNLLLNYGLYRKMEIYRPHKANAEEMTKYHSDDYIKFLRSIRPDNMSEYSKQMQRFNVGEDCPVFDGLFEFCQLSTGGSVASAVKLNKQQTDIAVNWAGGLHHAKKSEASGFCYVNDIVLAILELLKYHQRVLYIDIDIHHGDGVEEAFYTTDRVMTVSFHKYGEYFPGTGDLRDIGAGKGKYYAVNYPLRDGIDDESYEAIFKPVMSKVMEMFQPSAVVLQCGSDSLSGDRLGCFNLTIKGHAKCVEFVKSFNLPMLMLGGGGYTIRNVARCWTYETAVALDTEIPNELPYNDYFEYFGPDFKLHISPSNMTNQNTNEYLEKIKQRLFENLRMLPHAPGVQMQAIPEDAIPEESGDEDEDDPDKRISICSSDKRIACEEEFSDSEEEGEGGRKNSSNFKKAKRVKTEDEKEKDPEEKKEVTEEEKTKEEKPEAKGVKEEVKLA

[2] = molecular target: T4, Protein deacetylase HDAC6 (Homo sapiens, UniProt Q9UBN7); test: Inhibition of HDAC6 (unknown origin) using fluorogenic tetrapeptide RHKK(Ac) substrate by fluorescence assay
T4 sequence (Q9UBN7 whole entry): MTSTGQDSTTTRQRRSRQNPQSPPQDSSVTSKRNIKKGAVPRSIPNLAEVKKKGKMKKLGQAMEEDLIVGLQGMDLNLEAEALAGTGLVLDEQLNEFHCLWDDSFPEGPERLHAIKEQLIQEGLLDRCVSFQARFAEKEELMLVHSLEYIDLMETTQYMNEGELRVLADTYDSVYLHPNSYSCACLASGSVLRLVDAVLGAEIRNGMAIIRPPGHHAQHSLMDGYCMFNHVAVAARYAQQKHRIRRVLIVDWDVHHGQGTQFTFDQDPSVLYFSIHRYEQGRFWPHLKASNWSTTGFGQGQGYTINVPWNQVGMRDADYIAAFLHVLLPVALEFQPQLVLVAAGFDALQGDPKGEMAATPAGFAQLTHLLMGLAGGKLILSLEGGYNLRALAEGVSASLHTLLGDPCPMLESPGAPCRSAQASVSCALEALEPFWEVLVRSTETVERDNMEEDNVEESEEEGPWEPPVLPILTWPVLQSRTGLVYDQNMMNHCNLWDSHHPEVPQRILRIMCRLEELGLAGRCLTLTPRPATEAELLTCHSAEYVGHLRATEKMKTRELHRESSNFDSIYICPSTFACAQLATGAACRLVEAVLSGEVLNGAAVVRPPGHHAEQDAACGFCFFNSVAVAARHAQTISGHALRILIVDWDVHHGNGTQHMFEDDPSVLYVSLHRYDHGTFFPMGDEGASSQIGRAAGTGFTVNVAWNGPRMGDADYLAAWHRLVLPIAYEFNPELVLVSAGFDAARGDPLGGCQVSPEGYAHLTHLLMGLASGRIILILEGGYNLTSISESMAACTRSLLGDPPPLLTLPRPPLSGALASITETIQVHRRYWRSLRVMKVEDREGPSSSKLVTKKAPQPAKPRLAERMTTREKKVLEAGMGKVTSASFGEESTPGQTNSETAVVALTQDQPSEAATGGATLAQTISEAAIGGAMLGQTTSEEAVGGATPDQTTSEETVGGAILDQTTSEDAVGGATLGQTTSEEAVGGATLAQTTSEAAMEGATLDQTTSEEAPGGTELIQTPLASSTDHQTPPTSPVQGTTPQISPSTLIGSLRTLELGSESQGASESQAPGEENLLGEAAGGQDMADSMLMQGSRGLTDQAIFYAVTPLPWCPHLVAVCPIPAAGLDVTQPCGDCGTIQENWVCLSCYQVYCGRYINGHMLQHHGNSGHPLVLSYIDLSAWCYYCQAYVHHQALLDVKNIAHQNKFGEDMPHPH

Sequence of Histone deacetylase 3 (O15379 whole entry): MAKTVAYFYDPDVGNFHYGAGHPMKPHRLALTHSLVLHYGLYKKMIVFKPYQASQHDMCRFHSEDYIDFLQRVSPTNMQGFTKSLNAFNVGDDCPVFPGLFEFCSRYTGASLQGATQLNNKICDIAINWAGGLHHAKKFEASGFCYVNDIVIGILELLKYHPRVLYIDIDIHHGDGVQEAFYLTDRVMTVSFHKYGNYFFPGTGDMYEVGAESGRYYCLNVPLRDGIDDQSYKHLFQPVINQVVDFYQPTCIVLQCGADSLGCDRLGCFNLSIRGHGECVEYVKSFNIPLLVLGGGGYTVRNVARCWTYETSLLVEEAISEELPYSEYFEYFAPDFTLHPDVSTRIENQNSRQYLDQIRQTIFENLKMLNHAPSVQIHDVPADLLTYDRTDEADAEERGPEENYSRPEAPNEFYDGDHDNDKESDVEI

IC50 (Histone deacetylase 3) [nM] | IC50 [1] [nM] | IC50 (Histone deacetylase 11) [nM] | IC50 (Histone deacetylase 2) [nM] | IC50 (Histone deacetylase 8) [nM] | IC50 (Histone deacetylase 1) [nM] | IC50 [2] [nM] | Compound
475 | 310 | 140 | 1770 | 23 | 386 | 139 | O=C1CCC[C@@H](C(=O)N[C@@H](CCCCCS)C(=O)NCc2ccc(C(F)(F)F)cc2)N1
3 | 4 | 5 | 14 | 106 | 4 | 2 | Cc1cccc(NC(=O)[C@H](CCCCCS)NC(=O)[C@H]2CCC(=O)N2)c1
10 | 11 | 6 | 67 | 416 | 15 | 6 | O=C1CCC[C@@H](C(=O)N[C@@H](CCCCCS)C(=O)Nc2ccccc2)N1
55 | 7 | 12 | 2230 | 2040 | 53 | 160 | O=C1NC[C@H](c2ccccc2)[C@H]1C(=O)N[C@@H](CCCCCS)C(=O)Nc1ccccc1
2600 | 3930 | 1870 | 10700 | 246 | 3210 | 2710 | Cc1cccc(CCNC(=O)CCCCCCS)c1
495 | 658 | 293 | 2540 | 9 | 504 | 83 | O=C1CCC[C@@H](C(=O)N[C@@H](CCCCCS)C(=O)NCc2cccc(OCc3ccccc3)c2)N1
5 | 2 | 12 | 5 | 99 | 3 | 1 | Cc1cccc(NC(=O)[C@H](CCCCCS)NC(=O)[C@H]2CCC(=O)N2C)c1
3 | 4 | 3 | 60 | 360 | 8 | 2 | Cc1ccc(NC(=O)[C@H](CCCCCS)NC(=O)[C@@H]2CCCC(=O)N2)cc1
13 | 15 | 30 | 33 | 59 | 24 | 1 | O=C1CC[C@@H](C(=O)N[C@@H](CCCCCS)C(=O)Nc2ccccc2)N1
2 | 5 | 4 | 37 | 40 | 7 | 4 | O=C1NC[C@@H](c2ccccc2)[C@@H]1C(=O)N[C@@H](CCCCCS)C(=O)Nc1ccccc1
897 | 1170 | 776 | 6640 | 2330 | 865 | 87 | O=C(CCCCCCS)NC1CCCC1
72 | 14 | 24 | 1900 | 2570 | 74 | 35 | O=C1NC[C@@H](c2ccccc2)[C@H]1C(=O)N[C@@H](CCCCCS)C(=O)Nc1ccccc1
122 | 81 | 82 | 601 | 17 | 92 | 15 | Cc1cccc(CCNC(=O)[C@H](CCCCCS)NC(=O)[C@@H]2CCCC(=O)N2)c1
98 | 189 | 89 | 454 | 450 | 160 | 6 | O=C1CCC[C@@H](C(=O)N[C@@H](CCCCCS)C(=O)NC2CCCC2)N1
2710 | 6290 | 2070 | 19400 | 373 | 5960 | 5300 | O=C(CCCCCCS)NCc1ccc(C(F)(F)F)cc1
49 | 116 | 67 | 103 | 545 | 58 | 5 | CN1C(=O)CC[C@@H]1C(=O)N[C@@H](CCCCCS)C(=O)Nc1ccccc1
6 | 32 | 10 | 34 | 107 | 10 | 5 | O=C1CCC[C@H](C(=O)N[C@@H](CCCCCS)C(=O)Nc2ccccc2)N1
5 | 11 | 15 | 48 | 122 | 12 | 1 | O=C1NCCC[C@@H]1C(=O)N[C@@H](CCCCCS)C(=O)Nc1ccccc1
138 | 40 | 102 | 171 | 8100 | 101 | 21 | O=C1CC[C@H](C(=O)N[C@H](CCCCCS)C(=O)Nc2ccccc2)N1
11 | 7 | 44 | 12 | 316 | 5 | 5 | O=C1CC[C@H](C(=O)N[C@@H](CCCCCS)C(=O)Nc2cccc(C(F)(F)F)c2)N1
3 | 9 | 9 | 28 | 62 | 7 | 1 | O=C1NCCC[C@H]1C(=O)N[C@@H](CCCCCS)C(=O)Nc1ccccc1
2950 | 2990 | 1840 | 14000 | 904 | 3160 | 1770 | O=C(CCCCCCS)NCc1cccc(OCc2ccccc2)c1
8 | 9 | 10 | 68 | 61 | 8 | 2 | O=C1C[C@@H](C(=O)N[C@@H](CCCCCS)C(=O)Nc2ccccc2)N1
